According to publication PMC12259270, “Sensory neuron–expressed FGF13 controls nociceptive signaling in diabetic neuropathy models” (The Journal of Clinical Investigation, 2025):
Several values for one entry are separate records, joined by “and”; a condition that tells them apart may be missing. Identical values can stand only once. Residues, ends and D or L forms follow the SMILES beside them. *: point of attachment. NHPh = c1ccc(N*)cc1

Target: T1, human Nav1.7 (Homo sapiens, UniProt Q15858)
T1 construct: expressed in transfected cells; host or cells: HEK293 stably expressing human Nav1.7
T1 sequence (Q92913 1-192 partner limits assumed): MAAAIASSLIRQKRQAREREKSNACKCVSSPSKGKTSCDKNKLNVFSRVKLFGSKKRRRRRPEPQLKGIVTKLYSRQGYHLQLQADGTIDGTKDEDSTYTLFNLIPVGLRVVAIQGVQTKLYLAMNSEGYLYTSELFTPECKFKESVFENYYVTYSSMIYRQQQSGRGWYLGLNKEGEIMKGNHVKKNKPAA
T1 sequence (Q15858 1-1977 isoform Q15858-3): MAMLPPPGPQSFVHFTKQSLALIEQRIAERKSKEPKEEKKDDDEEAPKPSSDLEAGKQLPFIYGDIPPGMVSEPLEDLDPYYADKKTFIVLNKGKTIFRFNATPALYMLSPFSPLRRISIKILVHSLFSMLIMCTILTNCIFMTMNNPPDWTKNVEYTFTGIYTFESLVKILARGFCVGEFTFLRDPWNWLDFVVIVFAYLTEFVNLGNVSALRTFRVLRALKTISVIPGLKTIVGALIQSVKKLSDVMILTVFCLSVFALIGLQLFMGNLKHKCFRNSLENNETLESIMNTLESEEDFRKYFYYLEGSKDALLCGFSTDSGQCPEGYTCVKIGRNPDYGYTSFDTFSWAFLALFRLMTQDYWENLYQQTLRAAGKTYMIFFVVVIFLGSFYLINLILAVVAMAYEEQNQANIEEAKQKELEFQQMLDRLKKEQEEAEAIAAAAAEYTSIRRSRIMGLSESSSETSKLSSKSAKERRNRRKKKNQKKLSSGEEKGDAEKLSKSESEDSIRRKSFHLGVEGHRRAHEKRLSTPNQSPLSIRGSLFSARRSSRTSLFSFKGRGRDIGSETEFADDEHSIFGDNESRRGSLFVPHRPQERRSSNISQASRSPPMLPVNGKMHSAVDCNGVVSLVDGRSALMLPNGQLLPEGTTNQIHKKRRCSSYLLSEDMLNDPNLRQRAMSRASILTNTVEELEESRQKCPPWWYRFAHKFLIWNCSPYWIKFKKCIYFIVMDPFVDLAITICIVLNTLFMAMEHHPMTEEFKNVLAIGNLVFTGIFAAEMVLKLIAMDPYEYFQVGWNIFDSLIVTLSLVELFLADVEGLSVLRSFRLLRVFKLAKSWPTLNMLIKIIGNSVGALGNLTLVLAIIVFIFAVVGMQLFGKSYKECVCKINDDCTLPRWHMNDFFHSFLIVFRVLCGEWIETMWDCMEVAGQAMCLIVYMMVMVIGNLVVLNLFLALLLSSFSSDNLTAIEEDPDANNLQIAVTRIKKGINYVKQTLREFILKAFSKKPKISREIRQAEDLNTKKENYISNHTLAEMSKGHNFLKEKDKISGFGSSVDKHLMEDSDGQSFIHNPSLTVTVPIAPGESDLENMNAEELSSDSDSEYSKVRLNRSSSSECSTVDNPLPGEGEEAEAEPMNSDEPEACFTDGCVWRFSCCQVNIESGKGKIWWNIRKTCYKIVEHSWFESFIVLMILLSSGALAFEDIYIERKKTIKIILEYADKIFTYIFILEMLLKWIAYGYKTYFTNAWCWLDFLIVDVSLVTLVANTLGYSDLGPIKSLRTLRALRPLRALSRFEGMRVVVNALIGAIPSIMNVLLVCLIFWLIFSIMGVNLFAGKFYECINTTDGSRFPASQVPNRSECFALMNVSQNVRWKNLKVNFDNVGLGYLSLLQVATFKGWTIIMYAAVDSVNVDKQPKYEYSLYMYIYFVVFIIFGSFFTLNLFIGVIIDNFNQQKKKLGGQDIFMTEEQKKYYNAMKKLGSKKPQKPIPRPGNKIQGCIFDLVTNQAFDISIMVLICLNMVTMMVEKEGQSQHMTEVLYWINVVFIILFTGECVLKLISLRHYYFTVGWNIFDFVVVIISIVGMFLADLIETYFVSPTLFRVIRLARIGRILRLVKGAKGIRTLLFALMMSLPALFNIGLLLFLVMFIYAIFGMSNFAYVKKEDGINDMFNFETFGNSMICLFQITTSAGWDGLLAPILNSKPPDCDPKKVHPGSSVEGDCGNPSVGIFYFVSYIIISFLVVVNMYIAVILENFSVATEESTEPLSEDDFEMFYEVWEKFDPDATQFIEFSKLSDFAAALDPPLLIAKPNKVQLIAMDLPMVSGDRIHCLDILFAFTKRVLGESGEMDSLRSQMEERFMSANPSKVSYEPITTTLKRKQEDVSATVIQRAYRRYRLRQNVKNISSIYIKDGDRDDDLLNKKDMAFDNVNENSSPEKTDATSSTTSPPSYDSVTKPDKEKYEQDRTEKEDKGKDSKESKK
Assay: Whole-cell patch-clamp, HEK293 cells stably expressing human Nav1.7 with GFP or FGF13-GFP
Type: cell-based
Parameters: Nav1.7 repriming time course, Mean / Figure 4I, Mean versus Time (ms): unit not given here
Conditions: for Figure 4G, Mean per step (normalized): N 10; for Figure 4H, Mean per step (step 1 = 100): N 9
Procedure: Whole-cell patch clamp electrophysiology
HEK293-Nav1.7 cells, HEK293 stably expressing human Nav1.6 (HEK-Nav1.6), HEK293 stably expressing human Nav1.5 (HEK-Nav1.5), human hIPSC-derived sensory neurons (RealDRGTM from Anatomic Incorporated 1020F1-1M) and donor-derived DRG neurons were plated at low density on glass coverslips and processed for whole-cell patch clamp electrophysiology in voltage-clamp and/or current clamp mode. Whole-cell patch electrophysiological experiments were conducted following previously published studies (26). Current densities were obtained by dividing INa amplitude by membrane capacitance. Current –voltage relationships were generated by plotting current density as a function of the […]. Conductance (G Na) was calculated by the […]
where INa is the current amplitude at voltage Vm, and Erev is the Na+ reversal potential.
Activation curves were derived by plotting normalized GNa as a function of test potential and fitted using […]
Where GNa,Max is the maximum conductance, Va is the membrane potential of half-maximal activation, Em is the membrane voltage and k is the slope factor. For steady -state inactivation, normalized current amplitude (INa/INa,Max) at the test potential was plotted as a function of prepulse potential (Vm) and fitted using the […]
Where Vh is the potential of half-maximal inactivation, E m is the membrane voltage, and k is the slope factor.
Transient INa inactivation decay was estimated with the standard exponential equation. Inactivation time constant (tau, τ) was fitted with the following equation: […]
where I(t) is the amplitude of the current at time t and Iss is the steady-state current during a single voltage-step.
The goodness of fitting was determined by correlation coefficient (R), and the cutoff of R was set at 0.85. To observe effects on long-term inactivation (LTI), a four-step protocol was employed during which cells were subjected to four 0 mV, 20 ms depolarization pulses separated by −90 mV, 40 ms recovery intervals. To control for various cell sizes, the current densities were calculated by dividing INa peak current amplitude/membrane capacitance (Cm). To represent the fraction of channels entering into LTI, the peak INa observed during depolarization cycles 2-4 was normalized to the peak INa observed during depolarization cycle 1 (INa/INa,Cycle 1) and plotted as a function of the depolarization cycle.
The cumulative (frequency-dependent) use-dependency was determined by applying 20 pulses with a depolarization to −10 mV (50 ms duration) and 50 ms recovery intervals with a train of 20 pulses at 10 Hz from a holding potential at -70 mV. The current pulses were normalized to the first reco rded pulse and the currents at the 2nd to 20th pulses were compared. The same train was used to record use-dependency at various frequencies […]
The rate of recovery from inactivation was recorded at -80 mV with a standard repriming voltage protocol.
The cells were prepulsed to -20 mV for 20 ms to inactivate all currents, then driven back to the recovery potential (Vrec) for increasing recovery durations before the test pulse to 0 mV. The maximum pulse rate was 0.5 Hz. The […]
follows previous publications (16). The time constants were estimated from single exponential decay to time courses measured at recovery potentials ranging from -140 to -60 mV with the protocol as mentioned above.
Electrophysiological Recordings
HEK293 cells: Electrophysiological recordings in HEK293 stably expressing Nav1.7 (HEK-Nav1.7), Nav1.5 (HEK-Nav1.5) or Nav1.6 (HEK-Nav1.6) were performed at room temperature using a MultiClamp 700B or an Axopatch 200B amplifier (Molecular Devices) after incubating coverslips for 60 minutes either with 0.1% DMSO or 50 μM PW164 or ZL192 in the extracellular solution. The composition of recording solutions consisted of the […]
following salts: extracellular (mM): 140 NaCl, 3 KCl, 1 MgCl2, 1 CaCl2, 10 HEPES, 10 glucose, pH 7.3; […]
intracellular (mM): 130 CH3O3 SCs, 1 EGTA, 10 NaCl, 10 HEPES, pH 7.3. […]

## CC(=O)N[C@@H](Cc1ccccc1)C(=O)N[C@@H](CC(C)C)C(=O)N1CCC[C@H]1C(=O)N[C@@H](CCCCN)C(=O)Nc1ccccc1 [ZL192] (Ac-FLPK-NHPh)
Nav1.7 + FGF13-GFP, Steps 20
  Figure 4G, Mean per step (normalized): 0.8672
Nav1.7 + FGF13-GFP, Time (ms) 2, N 7
  Figure 4I, Mean versus Time (ms): -2.382
Nav1.7 + FGF13-GFP, Time (ms) 5, N 7
  Figure 4I, Mean versus Time (ms): -10.2316
Nav1.7 + FGF13-GFP, Time (ms) 9, N 7
  Figure 4I, Mean versus Time (ms): -21.032
Nav1.7 + FGF13-GFP, Time (ms) 17, N 7
  Figure 4I, Mean versus Time (ms): -28.22
Nav1.7 + FGF13-GFP, Time (ms) 33, N 7
  Figure 4I, Mean versus Time (ms): -35.2152
Nav1.7 + FGF13-GFP, Time (ms) 65, N 7
  Figure 4I, Mean versus Time (ms): -41.6453
Nav1.7 + FGF13-GFP, Time (ms) 129, N 7
  Figure 4I, Mean versus Time (ms): -47.08
Nav1.7 + FGF13-GFP, Time (ms) 257, N 7
  Figure 4I, Mean versus Time (ms): -58.7924
Nav1.7 + FGF13-GFP, Time (ms) 513, N 7
  Figure 4I, Mean versus Time (ms): -60.0808
Nav1.7 + FGF13-GFP, Time (ms) 1025, N 7
  Figure 4I, Mean versus Time (ms): -61.473
Nav1.7 + FGF13-GFP, Time (ms) 2000, N 7
  Figure 4I, Mean versus Time (ms): -62.66
Nav1.7 + GFP
  Current density pA/pF (Figure 4D), individual cells: -42.7131 pA/pF and -116.886 pA/pF and -86.2507 pA/pF and -55.3628 pA/pF and -87.5203 pA/pF and -98.7467 pA/pF and -44.4757 pA/pF and -64.4298 pA/pF and -57.1752 pA/pF and -107.666 pA/pF and -47.813 pA/pF
Nav1.7 + GFP, Steps 1
  Figure 4H, Mean per step (step 1 = 100): 100
  Figure 4G, Mean per step (normalized): 1
Nav1.7 + GFP, Steps 2
  Figure 4H, Mean per step (step 1 = 100): 67.9415
Nav1.7 + GFP, Steps 3
  Figure 4H, Mean per step (step 1 = 100): 62.3546
  Figure 4G, Mean per step (normalized): 0.8342
Nav1.7 + GFP, Steps 4
  Figure 4H, Mean per step (step 1 = 100): 60.931
Nav1.7 + GFP, Steps 5
  Figure 4G, Mean per step (normalized): 0.7578
Nav1.7 + GFP, Steps 10
  Figure 4G, Mean per step (normalized): 0.7548
Nav1.7 + GFP, Steps 15
  Figure 4G, Mean per step (normalized): 0.7445
Nav1.7 + GFP, Steps 20
  Figure 4G, Mean per step (normalized): 0.751
Nav1.7 + GFP, Time (ms) 2, N 6
  Figure 4I, Mean versus Time (ms): -1.684
Nav1.7 + GFP, Time (ms) 5, N 6
  Figure 4I, Mean versus Time (ms): -3.032
Nav1.7 + GFP, Time (ms) 9, N 6
  Figure 4I, Mean versus Time (ms): -5.9665
Nav1.7 + GFP, Time (ms) 17, N 6
  Figure 4I, Mean versus Time (ms): -10.1843
Nav1.7 + GFP, Time (ms) 33, N 6
  Figure 4I, Mean versus Time (ms): -13.6758
Nav1.7 + GFP, Time (ms) 65, N 6
  Figure 4I, Mean versus Time (ms): -16.716
Nav1.7 + GFP, Time (ms) 129, N 6
  Figure 4I, Mean versus Time (ms): -20.6484
Nav1.7 + GFP, Time (ms) 257, N 6
  Figure 4I, Mean versus Time (ms): -23.8114
Nav1.7 + GFP, Time (ms) 513, N 6
  Figure 4I, Mean versus Time (ms): -25.3409
Nav1.7 + GFP, Time (ms) 1025, N 6
  Figure 4I, Mean versus Time (ms): -26.7193
Nav1.7 + GFP, Time (ms) 2000, N 6
  Figure 4I, Mean versus Time (ms): -29.0414
